{"source": "patent US20060194800A1", "about": "“Pteridine derivatives as nitric oxide synthase activators” (University of Strathclyde, priority 2005, published 2006)", "system": "rat pulmonary artery", "experiment": "BH4 depleted (DAHP) rat pulmonary artery relaxation", "method": "Rat pulmonary artery or aorta rings (as above) were placed in 15 ml tubes containing 2-3 ml of MEM (minimal essential medium) solution containing 0.1% bovine serum albumin, 100 U/ml penicillin and […] streptomycin. Some of the tubes in addition received diamino-hydroxy-pyrimidine (DAHP) 10^−2 M, an inhibitor of GTP cyclohydrolase, the rate-limiting step in tetrahydrobiopterin synthesis. The tubes were incubated at 37° C. for six hours. […] After the incubation with DAHP or the control incubation with the medium (MEM) alone, the rings were removed and then their relaxation in response to the analogue (or solvent NH4OH) was tested as above. Dose response curves of DAHP-treated tissues were compared to the control tissues treated in MEM alone for 6 hrs. The results are shown graphically in FIGS. 3 and 4. […] Thus WSG1002 is acting to enhance the ability of the endothelium to form NO and is not acting merely as a NO donor. The above procedures were used to mimic cardiovascular disease, by treating aorta and pulmonary artery rings with an inhibitor of the enzyme GTP cyclohydrolase, which is the rate-limiting step in the formation of tetrahydrobiopterin by cells. Treatment with this inhibitor, DAHP, for 6 hours reduced endogenous tetrahydrobiopterin levels in arteries to 4% of the normal content. […] This was found in both pulmonary artery and aorta (FIGS. 3 and 4). […] The only effect seen was a contraction—the opposite to the action of WSG1002—at the highest concentration of tetrahydrobiopterin. […] WSG1002 has an EC50 of approximately 10 nM.", "note": "“Also recorded” adds a separate entry of the source."}
{"smiles": "CC(=O)C1=Nc2c(nc(N)[nH]c2=O)NC1(C)C", "note": "[wsg1002, 6-Acetyl-2-amino-7,7-dimethyl-7,8-dihydro-3H-pteridin-4-one]", "values": [{"measurement": "relaxation of rat pulmonary artery rings", "setting": "DAHP 10^-2 M for 6 h, tetrahydrobiopterin depleted", "value": "significant and physiologically important vasodilatation; also recorded: substantial relaxation"}, {"measurement": "relaxation of pulmonary artery ring in presence of L-NAME", "setting": "L-NAME 100 μM, same result in normal and DAHP-treated rings", "value": "no relaxation"}, {"measurement": "EC50", "setting": "Rattus norvegicus, DAHP-treated artery rings, tissue not specified", "value": "~10", "unit": "nM"}]}
